Earlier results as cited in patent US6849254B1, “HCV combination therapy” (Schering Corporation, priority 1999, dated 2005).

What was measured:
[1] = system: chronic childhood cholestasis; conditions: 20-25 IU/kg/day (Sokool et al.)
CD4 levels = conditions: HIV patients; higher doses; Phase I/II clinical trials (PharmaProjects)
[2] = for Potency of 1 mg in IU of Vitamin E: per 1 mg

Compound | Potency of 1 mg in IU of Vitamin E [2] [IU] | further results
d-alpha-tocopheryl polyethylene glycol 1000 succinate [Vitamin E-TPGS] | – | Safety and efficacy in chronic childhood cholestasis [1]: appears to be safe and effective
CC(C)(Sc1cc(C(C)(C)C)c(O)c(C(C)(C)C)c1)Sc1cc(C(C)(C)C)c(O)c(C(C)(C)C)c1 [Panavia, 4,4′-isopropylidenedithiobis-2,6-di-t-butylphenol] | – | CD4 levels (CD4 levels): stablized or slightly stabilized CD4 levele
CC(=O)Oc1c(C)c(C)c2c(c1C)CC[C@@](C)(CCC[C@H](C)CCC[C@H](C)CCCC(C)C)O2 [d-alpha tocopheryl acetate] | 1.36 | –
Cc1c(C)c2c(c(C)c1O)CC[C@@](C)(CCC[C@H](C)CCC[C@H](C)CCCC(C)C)O2 [d-alpha tocopherol] | 1.49 | –
Cc1c(C)c2c(c(C)c1OC(=O)CCC(=O)O)CC[C@@](C)(CCC[C@H](C)CCC[C@H](C)CCCC(C)C)O2 [d-alpha tocopheryl succinate] | 1.21 | –
CC(=O)Oc1c(C)c(C)c2c(c1C)CC[C@@](C)(CCC[C@H](C)CCC[C@H](C)CCCC(C)C)O2 [di-alpha tocopheryl acetate] | – | Amount equivalent to one IU of Vitamin E ([2]; per one IU of Vitamin E): 1 mg
